Experimental data from patent US8871787B2, “Stable crystalline salt of (R)-3-fluorophenyl-3,4,5-trifluorobenzylcarbamic acid 1-azabicyclo [2.2.2]oct-3-yl ester” (Laboratorios Salvat, S.A., priority 2007, dated 2014).

Columns and labels:
[1] = Hygroscopicity study at controlled relative humidity; assay type: physicochemical; parameters: mass gain or mass loss: unit not given here
[2] = Physicochemical stability and hygroscopicity of the salts on storage; conditions: for physicochemical stability (in words): storage or formulation, room and enhanced temperature, high humidity, aqueous media
Source text: Compound I is also disclosed in WO2004000840. On the other hand, compound I is exemplified as hydrochloride salt in WO2003053966 as an intermediate in the synthesis of other compounds. […] Upon storage or formulation of said known salt, progressive decomposition and concomitantly an increase in the amount and number of impurities was observed. Obviously, this problem is further aggravated under demanding environmental conditions such as light, heat, humidity or acidity.
It has been particularly difficult to find stable, crystalline forms of (R)-3-fluorophenyl-3,4,5-trifluorobenzylcarbamic acid 1-azabicyclo[2.2.2]oct-3-yl ester. […] Thus, there remains a need for a salt of (R)-3-fluorophenyl-3,4,5-trifluorobenzylcarbamic acid 1-azabicyclo[2.2.2]oct-3-yl ester that forms a crystalline solid that has a desirable morphology, be stable in the presence of water and under conditions of a high relative humidity (above 85%) and can readily be prepared on a large scale.

SMILES: O=C(O)C(O)C(O)C(=O)O.O=C(O[C@H]1CN2CCC1CC2)N(Cc1cc(F)c(F)c(F)c1)c1cccc(F)c1 [D-tartrate salt, D-tartrate salt of (R)-3-fluorophenyl-3,4,5-trifluorobenzylcarbamic acid 1-azabicyclo[2.2.2]oct-3-yl ester]
- mass gain or mass loss ([1]; 12% RH, 4 h): −0.26
- mass gain or mass loss ([1]; 12% RH, 8 h): −0.20
- mass gain or mass loss ([1]; 12% RH, 14 h): −0.30
- mass gain or mass loss ([1]; 12% RH, 48 h): −0.04
- mass gain or mass loss ([1]; 12% RH, 96 h): −0.30
- mass gain or mass loss ([1]; 12% RH, 144 h): −0.33
- mass gain or mass loss ([1]; 12% RH, 168 h): −0.32
- mass gain or mass loss ([1]; 12% RH, 192 h): −0.27
- mass gain or mass loss ([1]; 12% RH, 216 h): −0.29
- mass gain or mass loss ([1]; 12% RH, 240 h): −0.08
- mass gain or mass loss ([1]; 22% RH, 4 h): −0.16
- mass gain or mass loss ([1]; 22% RH, 8 h): −0.26
- mass gain or mass loss ([1]; 22% RH, 14 h): −0.25
- mass gain or mass loss ([1]; 22% RH, 48 h): −0.21
- mass gain or mass loss ([1]; 22% RH, 96 h): −0.26
- mass gain or mass loss ([1]; 22% RH, 144 h): −0.18
- mass gain or mass loss ([1]; 22% RH, 168 h): −0.28
- mass gain or mass loss ([1]; 22% RH, 192 h): −0.21
- mass gain or mass loss ([1]; 22% RH, 216 h): −0.19
- mass gain or mass loss ([1]; 22% RH, 240 h): −0.11
- mass gain or mass loss ([1]; 33% RH, 4 h): −0.25
- mass gain or mass loss ([1]; 33% RH, 8 h): −0.24
- mass gain or mass loss ([1]; 33% RH, 14 h): −0.21
- mass gain or mass loss ([1]; 33% RH, 48 h): −0.19
- mass gain or mass loss ([1]; 33% RH, 96 h): −0.17
- mass gain or mass loss ([1]; 33% RH, 144 h): −0.30
- mass gain or mass loss ([1]; 33% RH, 168 h): −0.39
- mass gain or mass loss ([1]; 33% RH, 192 h): −0.11
- mass gain or mass loss ([1]; 33% RH, 216 h): −0.15
- mass gain or mass loss ([1]; 33% RH, 240 h): −0.18
- mass gain or mass loss ([1]; 43% RH, 4 h): −0.38
- mass gain or mass loss ([1]; 43% RH, 8 h): −0.32
- mass gain or mass loss ([1]; 43% RH, 14 h): −0.21
- mass gain or mass loss ([1]; 43% RH, 48 h): −0.25
- mass gain or mass loss ([1]; 43% RH, 96 h): −0.30
- mass gain or mass loss ([1]; 43% RH, 144 h): −0.40
- mass gain or mass loss ([1]; 43% RH, 168 h): −0.34
- mass gain or mass loss ([1]; 43% RH, 192 h): −0.19
- mass gain or mass loss ([1]; 43% RH, 216 h): −0.25
- mass gain or mass loss ([1]; 43% RH, 240 h): −0.18
- mass gain or mass loss ([1]; 53% RH, 4 h): −0.19
- mass gain or mass loss ([1]; 53% RH, 8 h): −0.21
- mass gain or mass loss ([1]; 53% RH, 14 h): −0.16
- mass gain or mass loss ([1]; 53% RH, 48 h): −0.17
- mass gain or mass loss ([1]; 53% RH, 96 h): −0.19
- mass gain or mass loss ([1]; 53% RH, 144 h): −0.17
- mass gain or mass loss ([1]; 53% RH, 168 h): −0.16
- mass gain or mass loss ([1]; 53% RH, 192 h): −0.20
- mass gain or mass loss ([1]; 53% RH, 216 h): −0.14
- mass gain or mass loss ([1]; 53% RH, 240 h): 0.00
- mass gain or mass loss ([1]; 64% RH, 4 h): −0.08
- mass gain or mass loss ([1]; 64% RH, 8 h): −0.07
- mass gain or mass loss ([1]; 64% RH, 14 h): −0.07
- mass gain or mass loss ([1]; 64% RH, 48 h): 0.02
- mass gain or mass loss ([1]; 64% RH, 96 h): −0.07
- mass gain or mass loss ([1]; 64% RH, 144 h): 0.15
- mass gain or mass loss ([1]; 64% RH, 168 h): 0.15
- mass gain or mass loss ([1]; 64% RH, 192 h): 0.20
- mass gain or mass loss ([1]; 64% RH, 216 h): 0.25
- mass gain or mass loss ([1]; 64% RH, 240 h): 0.59
- mass gain or mass loss ([1]; 75% RH, 4 h): −0.08
- mass gain or mass loss ([1]; 75% RH, 8 h): 0.02
- mass gain or mass loss ([1]; 75% RH, 14 h): 0.01
- mass gain or mass loss ([1]; 75% RH, 48 h): 0.06
- mass gain or mass loss ([1]; 75% RH, 96 h): −0.06
- mass gain or mass loss ([1]; 75% RH, 144 h): −0.08
- mass gain or mass loss ([1]; 75% RH, 168 h): −0.05
- mass gain or mass loss ([1]; 75% RH, 192 h): 0.00
- mass gain or mass loss ([1]; 75% RH, 216 h): 0.01
- mass gain or mass loss ([1]; 75% RH, 240 h): 0.29
- mass gain or mass loss ([1]; 85% RH, 4 h): 0.16
- mass gain or mass loss ([1]; 85% RH, 8 h): 0.13
- mass gain or mass loss ([1]; 85% RH, 14 h): 0.22
- mass gain or mass loss ([1]; 85% RH, 48 h): 0.26
- mass gain or mass loss ([1]; 85% RH, 96 h): 0.07
- mass gain or mass loss ([1]; 85% RH, 144 h): 0.24
- mass gain or mass loss ([1]; 85% RH, 168 h): 0.18
- mass gain or mass loss ([1]; 85% RH, 192 h): 0.15
- mass gain or mass loss ([1]; 85% RH, 216 h): 0.23
- mass gain or mass loss ([1]; 85% RH, 240 h): 0.59
- mass gain or mass loss (in words) ([1]; 93% RH or below): No significant mass gain or mass loss
- mass gain or mass loss ([1]; 93% RH, 4 h): 0.16
- mass gain or mass loss ([1]; 93% RH, 8 h): 0.03
- mass gain or mass loss ([1]; 93% RH, 14 h): 0.24
- mass gain or mass loss ([1]; 93% RH, 48 h): 0.44
- mass gain or mass loss ([1]; 93% RH, 96 h): 0.40
- mass gain or mass loss ([1]; 93% RH, 144 h): 0.43
- mass gain or mass loss ([1]; 93% RH, 168 h): 0.39
- mass gain or mass loss ([1]; 93% RH, 192 h): 0.38
- mass gain or mass loss ([1]; 93% RH, 216 h): 0.43
- mass gain or mass loss ([1]; 93% RH, 240 h): 0.81
- water addition (in words) ([1]; 97% RH): significant water addition issue
- mass gain or mass loss ([1]; 97% RH, 4 h): 1.51
- mass gain or mass loss ([1]; 97% RH, 8 h): 1.06
- mass gain or mass loss ([1]; 97% RH, 14 h): 4.36
- mass gain or mass loss ([1]; 97% RH, 48 h): 7.86
- mass gain or mass loss ([1]; 97% RH, 96 h): 13.77
- mass gain or mass loss ([1]; 97% RH, 144 h): 23.58
- mass gain or mass loss ([1]; 97% RH, 168 h): 23.62
- mass gain or mass loss ([1]; 97% RH, 192 h): 23.06
- mass gain or mass loss ([1]; 97% RH, 216 h): 22.13
- mass gain or mass loss ([1]; 97% RH, 240 h): 19.88
- KF initial ([1]; before the hygroscopicity study): HYGR[…] (KF initial = 0.9692%)
- hygroscopicity (in words) [2]: relatively non-hygroscopic
- physicochemical stability (in words) [2]: more stable than the hydrochloride salt
- physicochemical stability (in words) ([2]; listed as Form I): stable at room temperature
